Blank lines part the entries; values can stand above or below the compound they belong to. Ends that are not written are not given here.
Key:
[1] = test system: Primary fibroblasts from Progeria patients; assay: Senescence screen (SA B-galactosidase staining) of polypeptide library; format: cell-based, human; details: 10 μM, 48 hours
Experimental: Primary fibroblasts isolated from Progeria patients can constitute a genetic model of early aging and cellular senescence in humans. Primary fibroblasts from Progeria patients were cultured in DMEM (Dulbecco's Modified Eagle's Medium) supplemented with 10% v.v. fetal bovine serum (FBS), and 1% v.v. of penicillin/streptomycin solution (1,000 U·mL-1). Cells were kept in a 5% CO2, 37° C. and 95% humidity atmosphere. After expansion, these cells were seeded in 96-well plates (1,000 cells per well) and, 6 hours after plating, were incubated with individual polypeptides from a proprietary library at 50 μM for 48 hours. Negative control comprised untreated cells, which received vehicle only; positive control group comprised cells incubated with 10 μM ABT-263, a senolytic compound for the same period. […] Three independent experiments including three technical replicates were performed.

HGPS HDFs = assay: PP2A modulators and senescence markers; format: cell-based, human; details: 48 hs; for cellular senescence (SA-BGal+ cells): Okadaic Acid 5-7.5 nM or DT-061 7.5 μM
Experimental: Since PP2A has not been explored for cellular senescence modulation, whether the treatment of HGPS HDFs with a PP2A inhibitor (Okadaic acid—OA) and activator (DT-061) would result in the modulation of cellular senescence markers was assessed. HGPS HDFs were treated with 5-7.5 nM Okadaic Acid or 7.5 μM DT-061 for 48 hs. Some cells were treated with both 5 nM Okadaic Acid and 12.5 μM Peptide 14 for 48 hours. The senescence level was determined by SA β-galactosidase staining and normalized to total cell number.

[2] = test system: human primary fibroblasts isolated from 3 healthy donors; assay: Etoposide-induced senescence; format: cell-based; details: etoposide 20 μM
Experimental: Cellular senescence may be caused by several different stimuli. In order to assess whether Peptide 14 was effective against UVB-induced and chemically-induced senescence, human primary fibroblasts isolated from 3 healthy donors were used. These cells were cultured in DMEM (Dulbecco's Modified Eagle's Medium) supplemented with 10% v.v. fetal bovine serum (FBS), and 1% v.v. of penicillin/streptomycin solution (1,000 U mL-1). Cells were kept in a 5% CO2, 37° C. and 95% humidity atmosphere. After expansion, these cells were seeded in 96-well plates (4,000 cells per well) and, 6 hours after plating, were submitted to either etoposide (20 μM) treatment for 24 hours, or exposed twice to 0.05 J/cm^2 of UVB radiation. […] After incubation, relative cellular senescence (assessed by the activity of senescence associated β-galactosidase staining relative to untreated control) was analyzed and plotted in column graphs. ATRX foci were also assessed following ATRX immunofluorescence staining. Graphs were built using the average ATRX foci detected per nuclei. […] Data was analyzed using with either t-test or ANOVA followed by a Bonferroni post-hoc test. Statistical significance was determined as p-values equal or lower than 0.05 (FIG. 6).

[3] = test system: ex vivo skin biopsies (donors); assay: Topical application to ex vivo skin biopsies; format: cell-based, human; details: vs untreated
From the text: Senescent cell accumulation in the skin has been related to facial wrinkling and perceived age. A formulation having a concentration of Peptide 14 in the formulation was adjusted (0.01% w/v) to support the skin penetration of the Peptide 14 of up to 2% into the dermis was applied to ex vivo skin biopsies (from donors). A topical retinol application group was used as an “anti-aging” control, due to its widespread and decades-long use in the field, along with a no treatment control group.

[4] = test system: peripheral blood mononuclear cells (PBMCs); assay: PBMC mRNA of IFN-γ and IL-10 (RT-qPCR); format: cell-based, human
Experimental: The effect of Peptide 14 on T cell activation was assessed by treating PBMCs stimulated with phytohaemagglutinin (PHA) with Peptide 14. PHA usually can trigger lymphocyte activation and cell division. PBMCs that were untreated with PHA or Peptide 14 served as negative control of lymphocyte activation. In the phytohaemagglutinin group, the PBMCs were activated with 5 μg/mL of PHA for 5 days. In the Peptide 14 and PHA group, the PBMCs were activated with 5 μg/mL of PHA and treated with 3.12 μM of Peptide 14 for 5 days. In the Peptide 14 group, the PBMCs were treated with 3.12 μM of Peptide 14 for 5 days. In the rapamycin group, the PBMCs were treated with 100 nM of rapamycin, a well-known immunosuppressive drug for 5 days. In the rapamycin+PHA group, the PBMCs were activated with 5 μg/mL of PHA and treated with 100 nM of rapamycin for 5 days. […] IFN-γ is typically produced in lymphocytes stimulated by PHA and may be used as marker of PBMC stimulation level. IL-10 is an anti-inflammatory cytokine. The cells from each of the experimental groups were processed for total RNA isolation, reverse transcription of the RNA and RT-qPCR. Data is represented as relative expression normalized to ubiquitous gene expression and untreated PBMC negative control.

[5] = test system: Primary fibroblasts from Progeria patients; assay: Senescence in Progeria fibroblasts (LKGIL, WLKGI); format: cell-based, human; details: 500 nM, 5 μM, 50 μM

Compound: CC1(C)CCC(c2ccc(Cl)cc2)=C(CN2CCN(c3ccc(C(=O)NS(=O)(=O)c4ccc(N[C@H](CCN5CCOCC5)CSc5ccccc5)c(S(=O)(=O)C(F)(F)F)c4)cc3)CC2)C1 [ABT-263]
cellular toxicity (cell number) [1]: cellular toxicity
relative cellular senescence (SA B-galactosidase staining) ([1]; positive control): significant reduction of cellular senescence

Compound: O=S(=O)(N[C@@H]1CCC[C@H](N2c3ccccc3Oc3ccccc32)[C@H]1O)c1ccc(OC(F)(F)F)cc1 [DT-061]
cellular senescence (SA-BGal+ cells) (HGPS HDFs): SA-BGal+ cell reduction

cellular senescence level (SA β-galactosidase) ([2]; 24 hours (senescence inducer)): significant increase
Compound: COc1cc([C@@H]2c3cc4c(cc3[C@@H](O[C@@H]3O[C@@H]5CO[C@@H](C)O[C@H]5[C@H](O)[C@H]3O)[C@H]3COC(=O)[C@H]23)OCO4)cc(OC)c1O [Etoposide, etoposide]
ATRX foci nuclear accumulation (average ATRX foci/cell) ([2]; 24 hours): significant increase

Compound: C=C1[C@@H](O)[C@@H]2O[C@]3(CC[C@H](/C=C/[C@@H](C)[C@@H]4CC(C)=C[C@@]5(O[C@H](C[C@@](C)(O)C(=O)O)CC[C@H]5O)O4)O3)CC[C@H]2O[C@@H]1[C@@H](O)C[C@H](C)[C@H]1O[C@@]2(CCCCO2)CC[C@H]1C [OA, Okadaic acid]
cellular senescence (SA-BGal+ cells) (HGPS HDFs): significant increase
CDKN1A expression (HGPS HDFs; Okadaic Acid 5-7.5 nM): significant increase
CXCL1 (SASP marker) expression (HGPS HDFs; Okadaic Acid 5-7.5 nM): significant increase
IL6 (SASP marker) expression (HGPS HDFs; Okadaic Acid 5-7.5 nM): significant increase

Ki-67 expression, epidermis [3]: significantly increased
Compound: CC1=C(/C=C/C(C)=C/C=C/C(C)=C/CO)C(C)(C)CCC1 [Retinol]
B2M expression, dermis [3]: significantly decreased
HAS2 expression, dermal samples [3]: increase
IL8 level, epidermis [3]: significantly increased
P16 mRNA expression, dermis [3]: significant increase
P16 mRNA expression, epidermis [3]: significant increase
dermal Ki67 expression [3]: significantly induced
dermal collagen 1 expression [3]: significantly induced
keratin 1 expression, epidermis [3]: significantly reduced
keratin 14 expression, epidermis [3]: significantly reduced

Compound: CO[C@H]1C[C@@H]2CC[C@@H](C)[C@@](O)(O2)C(=O)C(=O)N2CCCC[C@H]2C(=O)O[C@H]([C@H](C)C[C@@H]2CC[C@@H](O)[C@H](OC)C2)CC(=O)[C@H](C)/C=C(\C)[C@@H](O)[C@@H](OC)C(=O)[C@H](C)C[C@H](C)/C=C/C=C/C=C/1C [rapamycin]
relative expression level of IL-10 (negative control = 1) ([4]; single agent, 5 days (Peptide 14 3.12 μM; rapamycin 100 nM; PHA 5 μg/mL)): about 2.5
relative expression level of IL-10 (negative control = 1) ([4]; with 5 μg/mL PHA, 5 days (Peptide 14 3.12 μM; rapamycin 100 nM)): about 0.2

Compound: LKGIL [LKGIL]
cellular toxicity (relative cell number) [5]: No cellular toxicity

Compound: WLKGI [WLKGI]
cellular toxicity (relative cell number) [5]: No cellular toxicity

Source: US20250352608A1, “POLYPEPTIDES HAVING ANTI-INFLAMMATORY EFFECTS AND USES THEREOF” (OneSkin, Inc., priority 2020, published 2025)
